Data set [1] relates to M. tuberculosis H37Ra. The following applies: cited from earlier work.
The subject of data set [2] is Fusarium avenaceum (Fr.) Sacc. IMI 319947. The experiment in a line: In vitro antifungal activity, mycelial growth (MIC). The format is cell-based. The following applies: F. avenaceum mycelial growth.
The test system of data set [3] is Bipolaris sorokiniana conidium germination. The data set is described as follows: Inhibition of Bipolaris sorokiniana conidium germination. The format is cell-based. The following applies: 48 h, read-out: Inhibition (%) Compared to Negative Control, conidium germination.
Data set [4] has as its system Bipolaris sorokiniana (Sacc.) Shoemaker H-299. The experiment in a line: In vitro antifungal activity, mycelial growth (MIC). Type of data set: cell-based. The following applies: B. sorokiniana mycelial growth; for MIC: Bipolaris sorokiniana.
For data set [5], the system named is S. aureus ATCC 29213 biofilm formation. The data set is described as follows: Biofilm inhibition assay (crystal violet). The following applies: for effect on biofilm formation: sub-MIC concentrations. The format is cell-based, Staphylococcus aureus.
For data set [6], the system named is photosynthetic electron transport (PET) in spinach chloroplasts. The data set is described as follows: Inhibition of photosynthetic electron transport (PET) in spinach chloroplasts (Hill reaction, DCPIP). Type of data set: biochemical, Spinacia oleracea L. The procedure:
Chloroplasts were prepared from spinach (Spinacia oleracea L.) according to Masarovicova and Kralova. The inhibition of photosynthetic electron transport (PET) in spinach chloroplasts was determined spectrophotometrically (Genesys 6, Thermo Scientific), using an artificial electron acceptor 2,6-dichlorophenol-indophenol (DCIPP) according to Kralova et al., and the rate of photosynthetic electron transport was monitored as a photoreduction of DCPIP. The measurements were carried out in phosphate buffer (0.02 mol/L, pH 7.2) containing sucrose (0.4 mol/L), MgCl2 (0.005 mol/L), and NaCl (0.015 mol/L). The chlorophyll content was 30 mg/L in these experiments, and the samples were irradiated (~100 W/m^2 with 10 cm distance) with a halogen lamp (250 W) using a 4 cm water filter to prevent warming of the samples (suspension temperature 22 °C). The studied compounds were dissolved in DMSO due to their limited water solubility.

For data set [7], the system named is Nicotiana tabacum var. Samsun. The experiment in a line: In vivo toxicity against plant cells (leaf injection). Conditions: water solutions 1× MIC and 4× MIC injected into leaves, checked visually for 5 weeks.
Protocol: Nicotiana tabacum var. Samsun was used for this test [88].
Nicotiana tabacum var. Samsun was used for this test. […] As the negative control, solutions of DMSO in the same concentration were used. The positive control was 5% DMSO, which should be toxic to the plant cells. The aqueous solutions were injected into the plant leaves by a syringe (needle 27G × ¾”) to fill area approx. 1 cm^2 [88]. The test was made in triplicates in three different plants. The plants were kept in a greenhouse on direct sunlight. The effect of the compounds was visually checked every day for 5 weeks.
For data set [8], the system named is MRSA SA 630. The data set is described as follows: In vitro antibacterial evaluation, broth dilution micro-method (MIC). The following applies: 24 h, read-out: MIC MRSA SA 630. Type of data set: cell-based, Staphylococcus aureus. On the technique in general: In broth dilution the organism is exposed to a series of concentrations in liquid medium.
Data set [9] concerns Staphylococcus aureus ATCC 29213. Described as above. The format is cell-based. Conditions: read-out: MIC SA.
In data set [10] the test system is MRSA 63718. The data set is described as above. The following applies: 24 h, read-out: MIC MRSA 63718. Type of data set: cell-based, Staphylococcus aureus.
The test system of data set [11] is MRSA SA 3202. Described as above. Type of data set: cell-based, Staphylococcus aureus. The following applies: 24 h, read-out: MIC MRSA SA 3202.
Data set [12] relates to Staphylococcus aureus. The data set is described as follows: Pre-test subcultivation of aliquots on agar (minimal bactericidal concentration). The format is cell-based.
The subject of data set [13] is S. aureus ATCC 29213. The experiment in a line: Dynamics of antibacterial effect (time-kill curves). The format is cell-based, Staphylococcus aureus. Conditions: 4× MIC, after 8 h; bactericidal = −3log decrease of CFU/mL.
Data set [14] relates to MRSA SA 630. The experiment in a line: Synergy effect with clinically used drugs (fractional inhibitory concentration). Type of data set: cell-based, Staphylococcus aureus. Conditions: for Separate MIC: MRSA SA 630, each drug alone in the checkerboard plate; for Combined effect with vancomycin: additivity 0.5 < ΣFIC < 1.
Data set [15] is described as follows: Lipophilicity determination by RP-HPLC (capacity factor k / log k). Conditions: C18, isocratic MeOH 72%/H2O 28%.
For data set [16], the system named is MRSA SA 3202. The data set is described as follows: Synergy effect with clinically used drugs (fractional inhibitory concentration). Type of data set: cell-based, Staphylococcus aureus. The following applies: for Separate MIC: MRSA SA 3202, each drug alone in the checkerboard plate; for Combined effect with vancomycin: additivity 0.5 < ΣFIC < 1.
Data set [17] deals with THP-1 cells. The experiment in a line: In vitro antiproliferative assay (WST-1). Type of data set: cell-based, human. Conditions: WST-1, 24 h, highest concentration 30 μM, read-out: Tox IC50 (antiproliferative). Here is the method: The activity of this enzyme directly correlates with the number of metabolically active cells in the culture. […] Human monocytic leukemia THP-1 cells were used for in vitro antiproliferative assay. […] Cells were passaged at approximately one-week intervals. […] The maximum concentration of DMSO in the assays never exceeded 0.1%. Subsequently, the cells were incubated at 37 °C with 5% CO2 for 24 h. […] The median inhibition concentration values, IC50, were deduced through the production of a dose-response curve. All data were evaluated using GraphPad Prism 5.00 software (GraphPad Software, San Diego, CA, USA).
(In general: Tetrazolium dyes change colour on reduction, which living cells bring about.)

Data set [18] has as its system MRSA 63718. The data set is described as follows: Synergy effect with clinically used drugs (fractional inhibitory concentration). The format is cell-based, Staphylococcus aureus. Conditions: MRSA 63718, each drug alone in the checkerboard plate.
[19] abbreviates: Staphylococcus aureus, ATCC29213, 24 h.
The mark [20] stands for this setting: MRSA SA 3202, synergy ΣFIC ≤ 0.5.

Values after ≈ are worked out from the molar mass of the structure shown. Values joined by “and” are separate entries in the source; they are usually repeats but may differ in a detail not shown here. Identical values can stand only once. “Also recorded” adds a separate entry of the source. Like-named read-outs stand apart in the source and are kept apart here. Where only a bound is given, the exact number is not on record here.

As for `O=C(Nc1cccc(C(F)(F)F)c1)c1ccc2cccc(O)c2n1` [8-hydroxy-N-(3-trifluoromethylphenyl)quinoline-2-carbox-amide], the “decrease of the viability of M. tuberculosis H37Ra to” value in data set [1] is given as 18.8%.
The MIC is the lowest concentration that inhibits growth of the organism. Usually inhibition stands for the share of the control response that was lost under treatment. On to `CCCCNC(=O)n1c(NC(=O)OC)nc2ccccc21` [BNM, benomyl, reference compound], for which the MIC was 1.94 µM and 0.5 µg/mL in data set [2] (Fusarium avenaceum); 17.2 µM and 5 µg/mL in data set [4]. Also, in data set [3] (5 μg/mL), the inhibition at 5 µg/mL came to 100%. The inhibition at 10 µg/mL in data set [3] (10 μg/mL) came to 100%.
With `O=C(O)c1cn(C2CC2)c2cc(N3CCNCC3)c(F)cc2c1=O` [CPX, ciprofloxacin], the “effect on biofilm formation” value in [5] was “induction of biofilm formation”.
For orientation: IC50 means the concentration needed to halve the response being measured. With `O=C(/C=C/c1ccccc1)Nc1cccc(C(F)(F)F)c1` [Compound 6, (2E)-3-Phenyl-N-[3-(trifluoromethyl)phenyl]prop-2-enamide], the IC50 in [6] was 189 µM; in [17] (Homo sapiens, THP-1, 24 h), 22 µM; in data set [17], 22.7 ± 1.73 µM. Besides, the MIC in data set [2] is 54.93 µM (≈ 16 µg/mL); in data set [2] (Fusarium avenaceum), 54.9 µM and 16 µg/mL; in [8] it was 27.47 µM (≈ 8 µg/mL); in [8] (Staphylococcus aureus, MRSA), 27.5 µM and 8 µg/mL; in [9] (S. aureus ATCC 29213, 24 h), 27.47 µM (≈ 8 µg/mL); in [9] (setting [19]) it was 27.5 µM and 8 µg/mL. Also, the MIC in data set [10] is 27.47 µM (≈ 8 µg/mL); in data set [10] (Staphylococcus aureus, MRSA) it was 27.5 µM and 8 µg/mL; in data set [11], 27.47 µM (≈ 8 µg/mL); in data set [11] (Staphylococcus aureus, MRSA), 27.5 µM and 8 µg/mL; in [4], 54.9 µM and 16 µg/mL. Also, in [7], the “in vivo toxicity against plant cells” value was “nontoxic effect; also recorded: no visible influence on the plant tissue”. In data set [5] (S. aureus ATCC 29213, 48 h), the “lowest concentration which inhibited ≥80% of biofilm formation” value was determined as 8 µg/mL. This compound returned a minimal bactericidal concentrations in [12] of no more than 4 × MIC. In [13], the “bactericidal effect in time-kill curve assay” value was “very close to the bactericidal level”. For the same compound, the “Separate MIC” value in data set [14] was 8 µg/mL; in [16] it was 16 μg/mL and 8/8 μg/mL and 8 μg/mL. The “Combined effect with vancomycin” value in data set [14] (MRSA SA 630) and in data set [16] (MRSA SA 3202) was “additivity” each time. The “MIC BS” value in data set [4] lay within 49.98 to 66.32 µM. Further, the log k in data set [15] was 0.4859.
As to `O=C(/C=C/c1ccccc1)Nc1cc(C(F)(F)F)cc(C(F)(F)F)c1` [Compound 13, (2E)-N-[3,5-bis(Trifluoromethyl)phenyl]-3-phenylprop-2-enamide], the IC50 is 111 µM in data set [6]; 22 µM in data set [17] (Homo sapiens, THP-1, 24 h); 22.6 ± 1.88 µM in data set [17]. Further, the MIC was 713 µM and 256 µg/mL in data set [2] (Fusarium avenaceum); 22.27 µM (≈ 8 µg/mL) in data set [8]; 22.3 µM and 8 µg/mL in [8] (Staphylococcus aureus, MRSA); 22.27 µM (≈ 8 µg/mL) in data set [9] (S. aureus ATCC 29213, 24 h); 22.3 µM and 8 µg/mL in [9] (setting [19]); 22.27 µM (≈ 8 µg/mL) in data set [10]. Also, the MIC in data set [10] (Staphylococcus aureus, MRSA) was 22.3 µM and 8 µg/mL; in data set [11], 22.27 µM (≈ 8 µg/mL); in data set [11] (Staphylococcus aureus, MRSA), 22.3 µM and 8 µg/mL; in data set [4], 356 µM and 128 µg/mL. The minimal bactericidal concentrations in data set [12] is given as no more than 4 × MIC. Also, in [13], the “bactericidal effect in time-kill curve assay” value is reported as “bactericidal”. In addition, the “Separate MIC” value in data set [14] is 8 µg/mL and 4 µg/mL; in data set [16], 32 µg/mL. In addition, the “Combined effect with vancomycin” value in data set [14] (MRSA SA 630) and in [16] (MRSA SA 3202) was “additivity” each time. The “Combined effect with ciprofloxacin” value in data set [14] (MRSA SA 630, synergy ΣFIC ≤ 0.5) is on record as “synergistic”; in [16] (setting [20]) it was “synergistic”. Further, in data set [15], the log k was 0.981 and 0.9814. The “Combined effect with tetracycline” value in data set [16] (setting [20]) is given as “synergistic”.
On to `CN(C)[C@@H]1C(O)=C(C(N)=O)C(=O)[C@@]2(O)C(O)=C3C(=O)c4c(O)cccc4[C@@](C)(O)[C@H]3C[C@@H]12` [TET, tetracycline, reference compound], for which the “Separate MIC” value in data set [18] stood at 128 µg/mL; in data set [16], 64 µg/mL.
On to `CN[C@H](CC(C)C)C(=O)N[C@H]1C(=O)N[C@@H](CC(N)=O)C(=O)N[C@H]2C(=O)N[C@H]3C(=O)N[C@H](C(=O)N[C@H](C(=O)O)c4cc(O)cc(O)c4-c4cc3ccc4O)[C@H](O)c3ccc(c(Cl)c3)Oc3cc2cc(c3O[C@@H]2O[C@H](CO)[C@@H](O)[C@H](O)[C@H]2O[C@H]2C[C@](C)(N)[C@H](O)[C@H](C)O2)Oc2ccc(cc2Cl)[C@H]1O` [VAN, vancomycin, reference compound], for which the “effect on biofilm formation” value in [5] is given as “induction of biofilm formation”. The “Separate MIC” value in data set [14] turned out to be 1 µg/mL; in data set [18], 2 µg/mL; in data set [16], 1 µg/mL.

These data come from publication PMC6121455, “Synthesis and Spectrum of Biological Activities of Novel N-arylcinnamamides” (International Journal of Molecular Sciences, 2018).
